Assay results as given in ChEMBL document CHEMBL1145434, “Optimization of novel combi-molecules: identification of balanced and mixed bcr-abl/DNA targeting properties” (Bioorg Med Chem Lett, 2007).
The source made the active and inactive calls. The calls are words filed in the database; no cut-off is given here.

Experiments:
K562 = test: cells; details: Homo sapiens
Description: Cytotoxicity against K562 cells by MTT assay

[1] = molecular target: Tyrosine-protein kinase ABL1 (Homo sapiens, UniProt P00519)
Homo sapiens = species: Homo sapiens; test: Effect on DNA damage in p210 transfected M07 cells; type: functional, cell-based

Sequence of Tyrosine-protein kinase ABL1 (P00519 whole entry): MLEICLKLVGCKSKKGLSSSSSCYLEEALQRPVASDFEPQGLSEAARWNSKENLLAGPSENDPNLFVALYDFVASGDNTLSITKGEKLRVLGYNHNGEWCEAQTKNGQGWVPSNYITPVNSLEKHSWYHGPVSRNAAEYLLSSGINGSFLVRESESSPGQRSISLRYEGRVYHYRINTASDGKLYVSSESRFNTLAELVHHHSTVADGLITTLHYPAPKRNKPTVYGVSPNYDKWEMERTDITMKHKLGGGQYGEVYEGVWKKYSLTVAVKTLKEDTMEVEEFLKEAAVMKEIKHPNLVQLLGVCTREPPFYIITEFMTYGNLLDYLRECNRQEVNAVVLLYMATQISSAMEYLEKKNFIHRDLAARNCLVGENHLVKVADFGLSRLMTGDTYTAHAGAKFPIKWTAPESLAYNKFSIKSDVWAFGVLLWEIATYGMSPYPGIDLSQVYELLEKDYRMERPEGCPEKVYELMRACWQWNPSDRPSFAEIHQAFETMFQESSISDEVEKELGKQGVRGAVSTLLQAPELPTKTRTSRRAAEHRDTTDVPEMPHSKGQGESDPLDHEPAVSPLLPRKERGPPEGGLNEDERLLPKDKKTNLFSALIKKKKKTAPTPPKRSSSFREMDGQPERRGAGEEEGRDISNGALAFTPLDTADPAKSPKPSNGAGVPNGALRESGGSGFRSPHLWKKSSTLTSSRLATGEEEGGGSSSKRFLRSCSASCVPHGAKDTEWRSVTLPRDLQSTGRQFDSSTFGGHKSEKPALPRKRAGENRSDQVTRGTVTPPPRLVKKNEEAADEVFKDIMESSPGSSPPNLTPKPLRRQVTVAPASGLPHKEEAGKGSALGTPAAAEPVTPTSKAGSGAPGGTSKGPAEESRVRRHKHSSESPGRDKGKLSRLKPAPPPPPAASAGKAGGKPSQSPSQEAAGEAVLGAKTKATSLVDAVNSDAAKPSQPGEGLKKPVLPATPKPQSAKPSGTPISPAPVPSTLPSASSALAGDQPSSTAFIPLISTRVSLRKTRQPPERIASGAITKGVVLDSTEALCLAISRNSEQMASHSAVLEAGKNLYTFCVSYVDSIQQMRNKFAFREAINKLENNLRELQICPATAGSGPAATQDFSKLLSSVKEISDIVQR

| IC50 (K562) [nM] | Compound | IC50 [1] [nM] | Activity (Homo sapiens) |
| --- | --- | --- | --- |
| 187 | Cc1ccc(NC(=O)c2ccc(N=NN(C)CO)c(C(F)(F)F)c2)cc1Nc1nccc(-c2cccnc2)n1 | – | – |
| – | Cc1ccc(NC(=O)c2ccc(N)cc2)cc1Nc1nccc(-c2cccnc2)n1 | > 10000 | – |
| 113 | CNN=Nc1ccc(C(=O)Nc2ccc(C)c(Nc3nccc(-c4cccnc4)n3)c2)cc1C(F)(F)F | – | Active |
| 52 | Cc1ccc(NC(=O)c2ccc(N=NN(C)C)c(C(F)(F)F)c2)cc1Nc1nccc(-c2cccnc2)n1 | – | – |
| 9980 | CNN=Nc1ccc(C(=O)Nc2ccc(C)c(Nc3nccc(-c4cccnc4)n3)c2)cc1Cl | – | – |
| 316 | Cc1ccc(NC(=O)c2ccc(N)c(C(F)(F)F)c2)cc1Nc1nccc(-c2cccnc2)n1 | – | – |

| Compound | IC50 (K562) [nM] | IC50 [1] [nM] | Activity (Homo sapiens) |
| --- | --- | --- | --- |
| Cc1ccc(NC(=O)c2ccc(CN(CCCl)CCCl)cc2)cc1Nc1nccc(-c2cccnc2)n1 | > 100000 | > 10000 | – |
| Cc1ccc(NC(=O)c2ccc(CN(C)CCCl)cc2)cc1Nc1nccc(-c2cccnc2)n1 | 79700 | – | – |
| Cc1ccc(NC(=O)c2ccc(N(CCCl)CCCl)cc2)cc1Nc1nccc(-c2cccnc2)n1 | 2460 | 220 | – |
